Measurements published in US20220133872A1, “A MONOPHOSPHORYL LIPID-A LIPOSOME BASED CANCER VACCINE” (University of Florida Research Foundation, Inc., priority 2019, published 2022).
Entries after “also recorded” stand apart in the source; their conditions may differ.

Tested on: NKT cells
Assay: NKT cells in blood, spleen and liver of vaccinated C57BL/6 mice (flow cytometry)
Assay type: in vivo
Settings: vs untreated mice
Method: B16-F10 mouse melanoma cell line in C57/BL6 mice provides a syngeneic model of spontaneous highly metastatic tumor. As shown in the diagram of FIG. 13, three groups of mice were injected with B16 melanoma cell lines. Only one group received the GD3 based vaccine, the other groups were a control group and α-galactosylceramide (α-GalCer), a potent and specific activator of mouse and human iNKT cells. These C57BL/6 mice were vaccinated weekly for 4 weeks followed by a week of rest (see FIG. 13). Mice where then euthanized to collect, blood, liver, and spleen for evaluation of NKT cells. Liver lymphocytes were collected by making mono-cellular suspension of liver obtained after enzymatic digestion. Collected lymphocytes were stained for CD3, CD4, TCRβ, NK1.1, CD49b and dead cells. In these experiments untreated and α-galactosylceramide (α-GalCer) treated mice were used as controls. Tumor size and mass was only recorded.
One week post last vaccination, mice were euthanized as per IACUC protocol and Natural Killer T cells were evaluated in blood, spleen, and liver by staining the isolated cells with anti-CD45, CD3, CD4, TCRb, CD49b and NK1.1 antibodies. The stained cells were analyzed on BD Fortessa and FlowJo 10 v.

SMILES: CCCCCCCCCCCCCCCCCCCCCCCCCC(=O)N[C@@H](CO[C@H]1O[C@H](CO)[C@H](O)[C@H](O)[C@H]1O)[C@H](O)[C@H](O)CCCCCCCCCCCCCC [α-GalCer, α-galactosylceramide]
- NKT cells in the liver (liver, weekly x4, one week after last vaccination): increased; also recorded: accumulation
- NKT cells in spleen and blood (spleen and blood): no discernable differences
